Data from BindingDB's records for doi:10.1080/14756360500112326 (National Institute of Pharmaceutical Education and Research, 2005).

biological target: Xanthine dehydrogenase/oxidase (Homo sapiens, UniProt P47989); assay: Xanthine Oxidase Inhibition Assay
Description: Inhibition assay of the xanthine oxidase reaction by various purine based inhibitors was measured in terms of the decrease in uric acid formation at […].

Chain of Xanthine dehydrogenase/oxidase (P47989 whole entry): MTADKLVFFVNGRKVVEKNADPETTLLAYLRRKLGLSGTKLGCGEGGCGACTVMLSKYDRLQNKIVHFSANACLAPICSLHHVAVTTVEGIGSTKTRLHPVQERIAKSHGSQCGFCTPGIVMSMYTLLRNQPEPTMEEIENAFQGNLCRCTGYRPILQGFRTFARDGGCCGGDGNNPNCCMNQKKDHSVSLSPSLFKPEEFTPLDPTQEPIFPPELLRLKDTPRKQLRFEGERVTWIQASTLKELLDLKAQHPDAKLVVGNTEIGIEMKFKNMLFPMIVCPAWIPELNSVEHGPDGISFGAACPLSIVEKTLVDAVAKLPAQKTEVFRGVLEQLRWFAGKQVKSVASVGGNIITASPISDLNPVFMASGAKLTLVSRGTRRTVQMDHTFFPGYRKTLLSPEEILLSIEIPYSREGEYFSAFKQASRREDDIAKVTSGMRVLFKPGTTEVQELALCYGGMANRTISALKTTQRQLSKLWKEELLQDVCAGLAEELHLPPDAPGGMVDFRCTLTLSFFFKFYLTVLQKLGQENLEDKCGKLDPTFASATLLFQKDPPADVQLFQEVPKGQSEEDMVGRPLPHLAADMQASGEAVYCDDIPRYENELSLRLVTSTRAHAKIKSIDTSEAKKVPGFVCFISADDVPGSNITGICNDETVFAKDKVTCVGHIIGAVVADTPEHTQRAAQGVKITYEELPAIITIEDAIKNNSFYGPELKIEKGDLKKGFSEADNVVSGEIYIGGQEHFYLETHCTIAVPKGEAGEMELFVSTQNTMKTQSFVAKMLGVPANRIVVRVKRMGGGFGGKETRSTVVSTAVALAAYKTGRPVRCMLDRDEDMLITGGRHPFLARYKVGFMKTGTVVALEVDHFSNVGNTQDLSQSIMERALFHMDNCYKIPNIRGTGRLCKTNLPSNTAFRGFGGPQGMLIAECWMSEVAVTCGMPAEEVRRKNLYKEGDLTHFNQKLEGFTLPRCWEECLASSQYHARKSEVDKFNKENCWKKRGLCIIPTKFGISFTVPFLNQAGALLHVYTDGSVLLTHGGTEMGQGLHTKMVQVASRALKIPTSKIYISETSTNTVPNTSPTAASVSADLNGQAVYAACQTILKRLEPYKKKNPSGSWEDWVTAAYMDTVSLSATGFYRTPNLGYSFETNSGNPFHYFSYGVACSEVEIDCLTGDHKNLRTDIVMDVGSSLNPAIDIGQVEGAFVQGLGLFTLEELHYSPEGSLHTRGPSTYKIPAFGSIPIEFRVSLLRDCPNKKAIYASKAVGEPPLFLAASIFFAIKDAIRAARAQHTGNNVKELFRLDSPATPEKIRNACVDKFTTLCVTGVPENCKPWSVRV

First: O=C(Nc1ncnc2nc[nH]c12)c1ccccc1 [6-(N-benzoylamino)purine, 2]
Second: Nc1ncnc2nc[nH]c12
The IC50 of the first is 170-fold lower: 0.45 µM for the first, 75.6 µM for the second.

`O=c1[nH]c(=O)c2[nH]c(Br)nc2[nH]1` [8-Bromoxanthine, 3] gave an IC50 of 400 µM.
